Experimental data from US5539119A, “Indole derivatives” (priority 1990, dated 1996).
Read-outs that look alike come from different tables or passages of the source.

Legend:
δ-receptor = target: T1, δ-receptor (Mus musculus, UniProt P32300); assay: Antagonism to DPDPE in Mouse Vas Deferens (MVD)
T1 construct: from tissue; host or cells: mouse vas deferens

[1] = tested on: Guinea Pig Ileal Longitudinal Muscle; assay: Agonist activity in Guinea Pig Ileal Longitudinal Muscle (GPI); settings: for IC50: guinea pig ileum
Procedure: (§1) The test of the compounds of this invention for agonist and antagonist activities was carried out in according to the method proposed by Takemori et al. (Takemori, A, E. et al.: Eur. J. Pharmacal., 1982, 85, 163) using Guinea Pig Ileal Longitudinal Muscle Mouse Vas Deferens (MVD).

δ opioid receptor [2] = assay: Bonding (binding) assay, guinea pig brain homogenate, DPDPE (hot) / DADLE (cold); settings: μ/δ
Procedure: (§2) In the test for bonding, the homogenate of the brain of a guinea pig was diluted with Tris buffer in a ratio calculated to give to the produced solution a protein content of 0.7 mg per prot/tube was used as incorporated in the reaction solution. With regard to ligands for binding assay, 3H-DAGO (μ), DPDPE (δ), and EKC (κ) were used for hot samples and naloxone (μ), DADLE (δ), and naloxone (κ) for cold samples.

δ opioid receptor [3] = target: T2, δ opioid receptor (Cavia porcellus, UniProt A0A286XTF2); assay: as above
T2 construct: the homogenate of the brain of a guinea pig; from tissue; host or cells: guinea pig brain homogenate
Procedure: as §2

[4] = tested on: Guinea Pig Ileal Longitudinal Muscle; assay: GPI, shift of the compound's effect by naloxone or nor-BNI; design: GPI nor-BN1 Ke: unit not given here
Procedure: as §1

Mouse Vas Deferens (MVD) = assay: Agonist activity in Mouse Vas Deferens (MVD); settings: read-out: MVD IC50
Procedure: as §1

μ opioid receptor = target: T3, μ opioid receptor (Cavia porcellus, UniProt A0ACM8Q262); assay: Bonding (binding) assay, guinea pig brain homogenate, 3H-DAGO (hot) / naloxone (cold); settings: for Ki: guinea pig brain homogenate; for Ki ratio κ/μ: selectivity ratio
T3 construct: 3H-DAGO (DAMGO) radioligand, cold naloxone
Procedure: as §2

κ opioid receptor = target: T4, κ opioid receptor (Cavia porcellus, UniProt P41144); assay: Bonding (binding) assay, guinea pig brain homogenate, EKC (hot) / naloxone (cold)
T4 construct: the homogenate of the brain of a guinea pig; from tissue; host or cells: guinea pig brain homogenate
Procedure: as §2

mouse T cells = assay: Inhibiting proliferation of mouse T cells by Con-A stimulation ([3H]thymidine uptake, spleen cells); format: cell-based; settings: for IC50: ConA-stimulated mouse T cells
Procedure: Now, the immunosuppressive activity of the compound 19 which is representative of the compounds of the present invention will be shown. Activity in inhibiting proliferation of mouse T cells by Con-A stimulation
A monocellular suspension was prepared by sterilely removing the spleen from a mouse and passing the spleen through a mesh. This suspension was adjusted to a concentration of 5×10^6 cells/ml and dispensed by the unit of 100 μl in all the individual wells of a 96-well plate. […] Eight hours before completion of the incubation, [^3 H]thymidine was added to the contents of the wells in a fixed ratio of 2 μCi/10 μl/well. Eight hours after this addition, the cells in the wells were collected on filter papers with the aid of a cell harvester. The cells on the filter papers were dried, then combined with a toluene type scintillator, and counted for the radioactivity of the [^3 H] thymidine occluded in the cells by means of a scintillation counter.
The ratio of suppression of T cell proliferation was calculated in accordance with the following formula:
Rate of suppression=(Radioactivity in the absence of compound-Radioactivityafter addition of compound)/(Radioactivity in the absence of compound-Radioactivity in the absence of ConA)

[5] = guinea pig brain homogenate, read-out: Bonding assay Ki value δ
[6] = MVD Antagonism to DPDPE, pA2, (20 nM)
[7] = MVD Antagonism to DPDPE, pA2, (50 nM)

T3 sequence (A0ACM8Q262 1-400): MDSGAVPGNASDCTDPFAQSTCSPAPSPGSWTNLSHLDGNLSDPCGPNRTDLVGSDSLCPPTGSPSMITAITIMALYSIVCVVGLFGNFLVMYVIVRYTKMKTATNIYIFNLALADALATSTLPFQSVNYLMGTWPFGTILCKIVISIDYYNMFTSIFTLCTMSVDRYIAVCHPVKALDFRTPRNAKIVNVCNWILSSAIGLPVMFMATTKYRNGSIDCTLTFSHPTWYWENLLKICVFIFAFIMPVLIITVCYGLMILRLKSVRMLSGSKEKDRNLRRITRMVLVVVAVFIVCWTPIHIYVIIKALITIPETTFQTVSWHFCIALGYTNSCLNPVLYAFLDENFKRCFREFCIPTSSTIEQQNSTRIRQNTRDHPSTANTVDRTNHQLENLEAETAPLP
T1 sequence (P32300 whole entry): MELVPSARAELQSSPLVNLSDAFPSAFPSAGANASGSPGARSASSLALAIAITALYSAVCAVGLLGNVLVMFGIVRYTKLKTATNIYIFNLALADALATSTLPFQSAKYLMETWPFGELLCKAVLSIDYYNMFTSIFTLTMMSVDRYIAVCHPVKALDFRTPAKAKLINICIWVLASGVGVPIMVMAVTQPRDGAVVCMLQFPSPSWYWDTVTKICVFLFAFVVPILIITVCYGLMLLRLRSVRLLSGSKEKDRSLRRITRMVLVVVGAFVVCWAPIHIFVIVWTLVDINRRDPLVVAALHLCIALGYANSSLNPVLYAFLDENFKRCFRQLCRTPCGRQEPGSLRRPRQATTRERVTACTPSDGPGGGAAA
T4 sequence (P41144 whole entry): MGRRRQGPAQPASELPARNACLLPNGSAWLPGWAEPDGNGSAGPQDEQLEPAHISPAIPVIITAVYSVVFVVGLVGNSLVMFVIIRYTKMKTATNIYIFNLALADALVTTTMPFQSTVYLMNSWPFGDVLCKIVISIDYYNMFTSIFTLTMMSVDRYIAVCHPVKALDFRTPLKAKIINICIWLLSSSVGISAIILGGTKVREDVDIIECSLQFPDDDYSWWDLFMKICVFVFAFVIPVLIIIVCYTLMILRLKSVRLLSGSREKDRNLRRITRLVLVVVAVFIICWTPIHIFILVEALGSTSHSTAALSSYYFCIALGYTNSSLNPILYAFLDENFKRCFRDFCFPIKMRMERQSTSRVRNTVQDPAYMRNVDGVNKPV
T2 sequence (A0A286XTF2 1-366): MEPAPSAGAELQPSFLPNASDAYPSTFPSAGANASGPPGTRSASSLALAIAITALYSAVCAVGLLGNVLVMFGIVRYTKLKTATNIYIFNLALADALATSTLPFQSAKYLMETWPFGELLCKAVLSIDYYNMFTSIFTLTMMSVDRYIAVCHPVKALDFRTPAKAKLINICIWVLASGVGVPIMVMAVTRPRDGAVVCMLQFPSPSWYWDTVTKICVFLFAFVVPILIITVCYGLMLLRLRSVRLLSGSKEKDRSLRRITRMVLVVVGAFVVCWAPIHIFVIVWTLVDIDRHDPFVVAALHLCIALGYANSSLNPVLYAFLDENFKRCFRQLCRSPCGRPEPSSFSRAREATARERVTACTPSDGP

CN1CC[C@]2(c3cccc(O)c3)Cc3[nH]c4ccccc4c3C[C@H]2C1 (relative stereo) [Compound 2, 2-Methyl-4aα-(3-hydroxyphenyl)-1,2,3,4,4a,5,11,11aβ-octahydro-6H-indolo[2,3-g]isoquinoline]
Kb (δ-receptor; at 100 nM): 138 nM | MVD Antagonism to DPDPE at 100 nM, DR (δ-receptor; at 100 nM): 8.14 | IC50 [1]: 65100 nM | Ki ratio μ/δ (δ opioid receptor [2]): > 30.9 | Ki ratio μ/δ (δ opioid receptor [2]; selectivity ratio): 8.55 | Ki (δ opioid receptor [3]; [5]): 193 nM | GPI naloxone DR [4]: 1.12 | GPI nor-BN1 DR [4]: 1.25 | GPI nor-BN1 Ke [4]: 301 | GPI nor-BN1 pA2 [4]: 6.65 | IC50 (Mouse Vas Deferens (MVD)): 68600 nM | Ki (μ opioid receptor): 1650 nM | Ki ratio κ/μ (μ opioid receptor): > 3.62 | Ki (κ opioid receptor): > 5970 nM

Cc1ccc2[nH]c3c(c2c1)C[C@H]1CN(C)CC[C@]1(c1cccc(O)c1)C3 (relative stereo) [Compound 4, 2-Methyl-4aα-(3-hydroxyphenyl)-9-methyl-1,2,3,4,4a,5,11,11aβ-octahydro-6H-indolo[2,3-q]isoquinoline]
Kb (δ-receptor; at 100 nM): 427 nM | MVD Antagonism to DPDPE at 100 nM, DR (δ-receptor; at 100 nM): 3.37 | IC50 [1]: 28000 nM | Ki ratio μ/δ (δ opioid receptor [2]): > 9.35 | Ki ratio μ/δ (δ opioid receptor [2]; selectivity ratio): 5.18 | Ki (δ opioid receptor [3]; [5]): 1240 nM | GPI naloxone DR [4]: 0.62 | GPI nor-BN1 DR [4]: 1.17 | IC50 (Mouse Vas Deferens (MVD)): 46100 nM | Ki (μ opioid receptor): 6420 nM | Ki ratio κ/μ (μ opioid receptor): > 1.81 | Ki (κ opioid receptor): > 11600 nM

CN1CC[C@]2(c3cccc(O)c3)Cc3[nH]c4ccccc4c3C[C@@]2(O)C1 (relative stereo) [Compound 54, 2-Methyl-4aα-(3-hydroxyphenyl)-11aβ-hydroxy-1,2,3,4,4a,5,11,11a-octahydro-6H-indolo[2,3-q]isoquinoline]
MVD Antagonism to DPDPE, DR (δ-receptor; (50 nM)): 22.4 | Kb (δ-receptor; [6]): 5.75 nM | Kb (δ-receptor; [7]): 1.7 nM | IC50 [1]: 5960 nM | Ki (δ opioid receptor [3]): 2.75 nM | GPI naloxone DR [4]: 1.30 | GPI nor-BN1 DR [4]: 3.30 | GPI nor-BN1 Ke [4]: 8.70 | GPI nor-BN1 pA2 [4]: 8.06 | IC50 (Mouse Vas Deferens (MVD)): 10200 nM | Ki (κ opioid receptor): 662 nM

CN1CC[C@]2(c3cccc(O)c3)Cc3c(c4ccccc4n3C)C[C@H]2C1 (relative stereo) [Compound 12, 2-Methyl-4aα-(3-hydroxyphenyl)-1,2,3,4,4a,5,11,11aβ-octahydro-6-methyl-indolo[2,3-g]isoquinoline]
Kb (δ-receptor; at 100 nM): 138 nM | MVD Antagonism to DPDPE at 100 nM, DR (δ-receptor; at 100 nM): 8.27 | IC50 [1]: 38700 nM | Ki ratio μ/δ (δ opioid receptor [2]): 3.17 | Ki ratio μ/δ (δ opioid receptor [2]; selectivity ratio): 10.3 | Ki (δ opioid receptor [3]; [5]): 120 nM | GPI naloxone DR [4]: 0.61 | GPI nor-BN1 DR [4]: 0.70 | IC50 (Mouse Vas Deferens (MVD)): 25000 nM | Ki (μ opioid receptor): 1230 nM | Ki ratio κ/μ (μ opioid receptor): 0.31 | Ki (κ opioid receptor): 380 nM

CN1CC[C@]2(c3cccc(O)c3)Cc3[nH]c4ccc(Cl)cc4c3C[C@H]2C1 (relative stereo) [Compound 6, 2-Methyl-4aα-(3-hydroxyphenyl)-9-chloro-1,2,3,4,4a,5,11,11aβ-octahydro-6H-indolo[2,3-q]isoquinoline]
Kb (δ-receptor; at 100 nM): 240 nM | MVD Antagonism to DPDPE at 100 nM, DR (δ-receptor; at 100 nM): 5.16 | IC50 [1]: 7900 nM | Ki ratio μ/δ (δ opioid receptor [2]): > 24.9 | Ki ratio μ/δ (δ opioid receptor [2]; selectivity ratio): > 6.45 | Ki (δ opioid receptor [3]; [5]): 1100 nM | GPI naloxone DR [4]: 0.86 | GPI nor-BN1 DR [4]: 1.23 | GPI nor-BN1 Ke [4]: 77.0 | GPI nor-BN1 pA2 [4]: 7.16 | IC50 (Mouse Vas Deferens (MVD)): 23600 nM | Ki (μ opioid receptor): > 7090 nM | Ki ratio κ/μ (μ opioid receptor): > 3.86 | Ki (κ opioid receptor): > 27400 nM

Oc1cccc([C@]23CCN(CC4CC4)C[C@@H]2Cc2c([nH]c4ccccc24)C3)c1 (relative stereo) [Compound 19, 2-Cyclopropylmethyl-4aα-(3-hydroxyphenyl)-1,2,3,4,4a,5,11,11β-octahydro-6H-indolo[2,3-g]isoquinoline]
MVD Antagonism to DPDPE, DR (δ-receptor; (20 nM)): 5.17 | MVD Antagonism to DPDPE, DR (δ-receptor; (50 nM)): 9.62 | Kb (δ-receptor; [6]): 5.01 nM | Kb (δ-receptor; [7]): 6.03 nM | effect on inhibition of contraction by DPDPE, in words (δ-receptor; Mouse Vas Deferens): selectively attenuate the inhibition of contraction by DPDPE | effect on contraction of guinea pig ileum, in words [1]: avoids affecting the inhibition of contraction of the ileum of a guinea pig | IC50 [1]: 34600 nM | Ki (δ opioid receptor [3]): 3.5 nM | GPI naloxone DR [4]: 0.93 | GPI nor-BN1 DR [4]: 0.95 | activity in immunosuppression / inhibiting T cell proliferation, in words (mouse T cells): clearly strong activity in immunosuppression | inhibition at 0.1 µg/mL (mouse T cells; Mus musculus, T-cell, 48 h, 0.1 μg/ml, n = 3, read-out: Ratio of suppression of T cell proliferation): 6% | inhibition at 0.5 µg/mL (mouse T cells; Mus musculus, T-cell, 48 h, 0.5 μg/ml, n = 3, read-out: Ratio of suppression of T cell proliferation): 0% | inhibition at 0.75 µg/mL (mouse T cells; Mus musculus, T-cell, 48 h, 0.75 μg/ml, n = 3, read-out: Ratio of suppression of T cell proliferation): 18% | inhibition at 1 µg/mL (mouse T cells; Mus musculus, T-cell, 48 h, 1.0 μg/ml, n = 3, read-out: Ratio of suppression of T cell proliferation): 1% | inhibition at 2.5 µg/mL (mouse T cells; Mus musculus, T-cell, 48 h, 2.5 μg/ml, n = 3, read-out: Ratio of suppression of T cell proliferation): 33% | inhibition at 5 µg/mL (mouse T cells; Mus musculus, T-cell, 48 h, 5.0 μg/ml, n = 3, read-out: Ratio of suppression of T cell proliferation): 94% | inhibition at 7.5 µg/mL (mouse T cells; Mus musculus, T-cell, 48 h, 7.5 μg/ml, n = 3, read-out: Ratio of suppression of T cell proliferation): 100% | inhibition at 10 µg/mL (mouse T cells; Mus musculus, T-cell, 48 h, 10.0 μg/ml, n = 3, read-out: Ratio of suppression of T cell proliferation): 100% | inhibition at 12.5 µg/mL (mouse T cells; Mus musculus, T-cell, 48 h, 12.5 μg/ml, n = 3, read-out: Ratio of suppression of T cell proliferation): 100% | inhibition at 15 µg/mL (mouse T cells; Mus musculus, T-cell, 48 h, 15.0 μg/ml, n = 3, read-out: Ratio of suppression of T cell proliferation): 100% | inhibition at 17.5 µg/mL (mouse T cells; Mus musculus, T-cell, 48 h, 17.5 μg/ml, n = 3, read-out: Ratio of suppression of T cell proliferation): 100% | inhibition at 20 µg/mL (mouse T cells; Mus musculus, T-cell, 48 h, 20.0 μg/ml, n = 3, read-out: Ratio of suppression of T cell proliferation): 100% | IC50 (mouse T cells; Mus musculus, T-cell, read-out: IC50, activity in inhibiting T cell hyperplasia (Table 3)): 2.7 µg/mL | IC50 (mouse T cells; Mus musculus, T-cell, read-out: IC50 value, immunosuppression (text to Table 2)): 3 µg/mL | IC50 (Mouse Vas Deferens (MVD)): 28900 nM | Ki (μ opioid receptor): 716 nM | Ki (κ opioid receptor): 951 nM

CN1CC[C@]2(c3cccc(O)c3)Cc3[nH]c4c(F)cccc4c3C[C@H]2C1 (relative stereo) [Compound 8, 2-Methyl-4aα-(3-hydroxyphenyl)-7-fluoro-1,2,3,4,4a,5,11,11aβ-octahydro-6H-indolo[2,3-g]isoquinoline]
Kb (δ-receptor; MVD Antagonism to DPDPE at 100 nM, pA2, at 100 nM): 70.8 nM | MVD Antagonism to DPDPE at 100 nM, DR (δ-receptor; at 100 nM): 15.0 | IC50 [1]: 23000 nM | Ki ratio μ/δ (δ opioid receptor [2]): > 114 | Ki ratio μ/δ (δ opioid receptor [2]; selectivity ratio): 77.8 | Ki (δ opioid receptor [3]): 59 nM | GPI naloxone DR [4]: 0.80 | GPI nor-BN1 DR [4]: 1.04 | IC50 (Mouse Vas Deferens (MVD)): 25900 nM | Ki (μ opioid receptor): 4590 nM | Ki ratio κ/μ (μ opioid receptor): > 1.47 | Ki (κ opioid receptor): > 6750 nM
